Laboratory results as given in paper PMC4710522, “A Novel Triazolopyridine-Based Spleen Tyrosine Kinase Inhibitor That Arrests Joint Inflammation” (PLoS ONE, 2016).
Several values for one entry are separate records, joined by “and”; a condition that tells them apart may be missing. Equal entries are not always repeated.

Columns and labels:
Experiment in all cases: SelectScreen kinase assay
Assay type in all cases: biochemical
[1] = molecular target: T1, EGFR_L858R_h (Homo sapiens, UniProt P00533, L858R); settings: KM ATP, read-out: % control
T1 construct: purchased Life Technologies (Invitrogen) SelectScreen, Z'-LYTE / Adapta
Method in brief: (§1)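 With compound constant at 3 µM, kinase activity was determined by Z'-Lyte or Adapta at KM ATP or at 10 or 100 µM ATP. Uninhibited DMSO-only wells defined 100% control.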

[2] = molecular target: cKit_h (Homo sapiens, UniProt P10721)
Method in brief: as §1

[3] = molecular target: T2, Axl_h (Homo sapiens, UniProt P30530); settings: KM ATP, read-out: % control
T2 construct: purchased Life Technologies (Invitrogen) SelectScreen, Z'-LYTE / Adapta
Method in brief: as §1

[4] = molecular target: T3, GRK4_h (Homo sapiens, UniProt P32298); settings: KM ATP, read-out: % control
T3 construct: purchased Life Technologies (Invitrogen) SelectScreen, Z'-LYTE / Adapta
Method in brief: as §1

[5] = molecular target: T4, EphB2_h (Homo sapiens, UniProt P29323); settings: KM ATP, read-out: % control
T4 construct: purchased Life Technologies (Invitrogen) SelectScreen, Z'-LYTE / Adapta
Method in brief: as §1

[6] = molecular target: T5, NEK4_h (Homo sapiens, UniProt P51957); settings: KM ATP, read-out: % control
T5 construct: purchased Life Technologies (Invitrogen) SelectScreen, Z'-LYTE / Adapta
Method in brief: as §1

[7] = molecular target: Flt3_h (Homo sapiens, UniProt P36888)
[8] = molecular target: T6, Pim-2_h (Homo sapiens, UniProt Q9P1W9); settings: KM ATP, read-out: % control
T6 construct: purchased Life Technologies (Invitrogen) SelectScreen, Z'-LYTE / Adapta
Method in brief: as §1

[9] = molecular target: Syk_h (Homo sapiens, UniProt P43405)
Method in brief: as §1

[10] = molecular target: T7, PAK7_h (Homo sapiens, UniProt Q9P286); settings: KM ATP, read-out: % control
T7 construct: purchased Life Technologies (Invitrogen) SelectScreen, Z'-LYTE / Adapta
Method in brief: as §1

[11] = molecular target: T8, CLK1_h (Homo sapiens, UniProt P49759); settings: KM ATP, read-out: % control
T8 construct: purchased Life Technologies (Invitrogen) SelectScreen, Z'-LYTE / Adapta
Method in brief: as §1

[12] = molecular target: T9, IRR_h (Homo sapiens, UniProt P14616); settings: KM ATP, read-out: % control
T9 construct: purchased Life Technologies (Invitrogen) SelectScreen, Z'-LYTE / Adapta
Method in brief: as §1

[13] = molecular target: T10, Khs_1 (Homo sapiens, UniProt Q9Y4K4); settings: KM ATP, read-out: % control
T10 construct: purchased Life Technologies (Invitrogen) SelectScreen, Z'-LYTE / Adapta
Method in brief: as §1

[14] = molecular target: T11, MSK1_h (Homo sapiens, UniProt O75582); settings: KM ATP, read-out: % control
T11 construct: purchased Life Technologies (Invitrogen) SelectScreen, Z'-LYTE / Adapta
Method in brief: as §1

[15] = molecular target: T12, SIK2_h (Homo sapiens, UniProt Q9H0K1); settings: KM ATP, read-out: % control
T12 construct: purchased Life Technologies (Invitrogen) SelectScreen, Z'-LYTE / Adapta
Method in brief: as §1

[16] = molecular target: T13, CaMKII-beta_h (Homo sapiens, UniProt Q13554); settings: KM ATP, read-out: % control
T13 construct: purchased Life Technologies (Invitrogen) SelectScreen, Z'-LYTE / Adapta
Method in brief: as §1

[17] = molecular target: T14, JAK2-JH1-JH2_h (Homo sapiens, UniProt O60674); settings: KM ATP, read-out: % control
T14 construct: JAK2-JH1-JH2_h; purchased Life Technologies (Invitrogen) SelectScreen, Z'-LYTE / Adapta
Method in brief: as §1

[18] = molecular target: T15, PAK2_h (Homo sapiens, UniProt Q13177); settings: KM ATP, read-out: % control
T15 construct: purchased Life Technologies (Invitrogen) SelectScreen, Z'-LYTE / Adapta
Method in brief: as §1

[19] = molecular target: T16, Pim-1_h (Homo sapiens, UniProt P11309); settings: KM ATP, read-out: % control
T16 construct: purchased Life Technologies (Invitrogen) SelectScreen, Z'-LYTE / Adapta
Method in brief: as §1

[20] = molecular target: T17, TSSK1_h (Homo sapiens, UniProt Q9BXA7); settings: KM ATP, read-out: % control
T17 construct: purchased Life Technologies (Invitrogen) SelectScreen, Z'-LYTE / Adapta
Method in brief: as §1

[21] = molecular target: T18, MARK1_h (Homo sapiens, UniProt Q9P0L2); settings: KM ATP, read-out: % control
T18 construct: purchased Life Technologies (Invitrogen) SelectScreen, Z'-LYTE / Adapta
Method in brief: as §1

[22] = molecular target: T19, Aurora-A_h (Homo sapiens, UniProt O14965); settings: KM ATP, read-out: % control
T19 construct: purchased Life Technologies (Invitrogen) SelectScreen, Z'-LYTE / Adapta
Method in brief: as §1

[23] = molecular target: T20, Abl_E255K_h (Homo sapiens, UniProt P00519, E255K); settings: KM ATP, read-out: % control
T20 construct: purchased Life Technologies (Invitrogen) SelectScreen, Z'-LYTE / Adapta
Method in brief: as §1

[24] = molecular target: T21, IGF-1R_h (Homo sapiens, UniProt P08069); settings: KM ATP, read-out: % control
T21 construct: purchased Life Technologies (Invitrogen) SelectScreen, Z'-LYTE / Adapta
Method in brief: as §1

[25] = molecular target: T22, ALK4_h (Homo sapiens, UniProt P36896); settings: KM ATP, read-out: % control
T22 construct: purchased Life Technologies (Invitrogen) SelectScreen, Z'-LYTE / Adapta
Method in brief: as §1

[26] = molecular target: T23, CK1-gamma1_h (Homo sapiens, UniProt Q9HCP0); settings: KM ATP, read-out: % control
T23 construct: purchased Life Technologies (Invitrogen) SelectScreen, Z'-LYTE / Adapta
Method in brief: as §1

[27] = molecular target: T24, Abl_Y253F_h (Homo sapiens, UniProt P00519, Y253F); settings: KM ATP, read-out: % control
T24 construct: purchased Life Technologies (Invitrogen) SelectScreen, Z'-LYTE / Adapta
Method in brief: as §1

[28] = molecular target: T25, CSK_h (Homo sapiens, UniProt P41240); settings: KM ATP, read-out: % control
T25 construct: purchased Life Technologies (Invitrogen) SelectScreen, Z'-LYTE / Adapta
Method in brief: as §1

[29] = molecular target: T26, PKC-mu_h (Homo sapiens, UniProt Q15139); settings: KM ATP, read-out: % control
T26 construct: purchased Life Technologies (Invitrogen) SelectScreen, Z'-LYTE / Adapta
Method in brief: as §1

[30] = molecular target: T27, Ros_h (Homo sapiens, UniProt P08922); settings: KM ATP, read-out: % control
T27 construct: purchased Life Technologies (Invitrogen) SelectScreen, Z'-LYTE / Adapta
Method in brief: as §1

[31] = molecular target: T28, CK2_h (Homo sapiens, UniProt P68400); settings: KM ATP, read-out: % control
T28 construct: purchased Life Technologies (Invitrogen) SelectScreen, Z'-LYTE / Adapta
Method in brief: as §1

[32] = molecular target: T29, Ltk_h (Homo sapiens, UniProt P29376); settings: KM ATP, read-out: % control
T29 construct: purchased Life Technologies (Invitrogen) SelectScreen, Z'-LYTE / Adapta
Method in brief: as §1

[33] = molecular target: T30, Rsk4_h (Homo sapiens, UniProt Q9UK32); settings: KM ATP, read-out: % control
T30 construct: purchased Life Technologies (Invitrogen) SelectScreen, Z'-LYTE / Adapta
Method in brief: as §1

[34] = 3 µM, KM ATP, read-out: % control
[35] = 10-point dose-response, commercial vendor

Chain of Flt3_h (P36888 27-993): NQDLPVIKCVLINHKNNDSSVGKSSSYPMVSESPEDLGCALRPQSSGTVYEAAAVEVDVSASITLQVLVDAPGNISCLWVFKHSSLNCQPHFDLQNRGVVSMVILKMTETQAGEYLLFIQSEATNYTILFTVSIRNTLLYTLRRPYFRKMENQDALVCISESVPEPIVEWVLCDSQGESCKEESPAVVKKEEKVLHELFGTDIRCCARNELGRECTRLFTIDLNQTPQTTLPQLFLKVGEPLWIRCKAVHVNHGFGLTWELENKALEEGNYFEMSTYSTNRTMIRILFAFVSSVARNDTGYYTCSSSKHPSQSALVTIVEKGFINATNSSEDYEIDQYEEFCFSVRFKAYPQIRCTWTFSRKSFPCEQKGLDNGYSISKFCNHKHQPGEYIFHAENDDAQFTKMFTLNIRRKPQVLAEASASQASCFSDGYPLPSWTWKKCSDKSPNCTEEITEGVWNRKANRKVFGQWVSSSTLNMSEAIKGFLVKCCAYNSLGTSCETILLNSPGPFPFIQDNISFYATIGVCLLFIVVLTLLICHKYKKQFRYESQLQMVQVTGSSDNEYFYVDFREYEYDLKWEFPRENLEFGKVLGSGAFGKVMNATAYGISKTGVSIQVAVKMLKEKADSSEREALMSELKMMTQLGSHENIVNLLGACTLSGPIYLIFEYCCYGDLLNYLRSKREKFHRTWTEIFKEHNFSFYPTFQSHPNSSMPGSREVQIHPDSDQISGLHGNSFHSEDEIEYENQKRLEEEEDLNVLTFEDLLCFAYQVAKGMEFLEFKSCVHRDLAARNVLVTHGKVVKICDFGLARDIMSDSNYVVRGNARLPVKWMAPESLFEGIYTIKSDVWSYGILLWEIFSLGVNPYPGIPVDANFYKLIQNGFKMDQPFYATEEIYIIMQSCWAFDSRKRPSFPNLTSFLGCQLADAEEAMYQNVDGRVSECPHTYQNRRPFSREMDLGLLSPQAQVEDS
Chain of cKit_h (P10721 26-976): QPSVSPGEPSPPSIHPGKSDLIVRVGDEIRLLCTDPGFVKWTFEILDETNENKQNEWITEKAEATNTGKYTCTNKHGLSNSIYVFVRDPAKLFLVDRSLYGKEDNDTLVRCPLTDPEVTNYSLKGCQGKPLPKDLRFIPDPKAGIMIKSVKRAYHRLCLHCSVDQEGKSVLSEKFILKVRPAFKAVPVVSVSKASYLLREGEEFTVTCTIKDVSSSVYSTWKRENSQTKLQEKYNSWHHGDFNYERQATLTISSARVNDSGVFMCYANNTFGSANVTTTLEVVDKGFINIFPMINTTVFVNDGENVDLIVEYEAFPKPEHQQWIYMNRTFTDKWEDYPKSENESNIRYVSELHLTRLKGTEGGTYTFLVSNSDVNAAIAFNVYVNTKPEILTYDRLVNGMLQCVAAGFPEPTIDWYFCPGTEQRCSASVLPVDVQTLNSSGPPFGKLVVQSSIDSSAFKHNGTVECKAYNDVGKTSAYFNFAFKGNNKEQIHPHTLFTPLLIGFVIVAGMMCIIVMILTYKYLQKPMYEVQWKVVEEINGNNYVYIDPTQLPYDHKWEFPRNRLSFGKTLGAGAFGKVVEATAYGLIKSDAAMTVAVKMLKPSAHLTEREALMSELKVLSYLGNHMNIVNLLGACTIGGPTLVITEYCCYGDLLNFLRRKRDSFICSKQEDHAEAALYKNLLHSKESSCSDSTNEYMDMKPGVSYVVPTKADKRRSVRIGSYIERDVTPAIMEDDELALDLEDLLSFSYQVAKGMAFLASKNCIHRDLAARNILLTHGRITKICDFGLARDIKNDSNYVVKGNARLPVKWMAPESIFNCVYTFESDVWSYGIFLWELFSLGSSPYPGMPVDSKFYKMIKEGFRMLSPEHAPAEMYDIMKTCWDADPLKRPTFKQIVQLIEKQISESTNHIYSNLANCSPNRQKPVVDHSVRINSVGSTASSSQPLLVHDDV
T8 sequence (P49759 whole entry): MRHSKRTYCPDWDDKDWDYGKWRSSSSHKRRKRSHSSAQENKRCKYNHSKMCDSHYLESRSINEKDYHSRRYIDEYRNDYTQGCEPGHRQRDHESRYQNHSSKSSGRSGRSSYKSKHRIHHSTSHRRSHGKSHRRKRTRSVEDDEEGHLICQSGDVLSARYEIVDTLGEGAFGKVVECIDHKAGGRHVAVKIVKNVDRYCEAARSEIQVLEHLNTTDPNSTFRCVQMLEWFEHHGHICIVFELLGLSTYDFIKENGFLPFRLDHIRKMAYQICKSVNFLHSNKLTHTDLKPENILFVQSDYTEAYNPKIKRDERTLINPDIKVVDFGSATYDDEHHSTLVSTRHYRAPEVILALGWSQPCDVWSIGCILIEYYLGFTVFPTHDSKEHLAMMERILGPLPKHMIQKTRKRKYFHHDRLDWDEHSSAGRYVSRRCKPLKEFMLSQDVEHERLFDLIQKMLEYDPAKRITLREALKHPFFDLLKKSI
T12 sequence (Q9H0K1 whole entry): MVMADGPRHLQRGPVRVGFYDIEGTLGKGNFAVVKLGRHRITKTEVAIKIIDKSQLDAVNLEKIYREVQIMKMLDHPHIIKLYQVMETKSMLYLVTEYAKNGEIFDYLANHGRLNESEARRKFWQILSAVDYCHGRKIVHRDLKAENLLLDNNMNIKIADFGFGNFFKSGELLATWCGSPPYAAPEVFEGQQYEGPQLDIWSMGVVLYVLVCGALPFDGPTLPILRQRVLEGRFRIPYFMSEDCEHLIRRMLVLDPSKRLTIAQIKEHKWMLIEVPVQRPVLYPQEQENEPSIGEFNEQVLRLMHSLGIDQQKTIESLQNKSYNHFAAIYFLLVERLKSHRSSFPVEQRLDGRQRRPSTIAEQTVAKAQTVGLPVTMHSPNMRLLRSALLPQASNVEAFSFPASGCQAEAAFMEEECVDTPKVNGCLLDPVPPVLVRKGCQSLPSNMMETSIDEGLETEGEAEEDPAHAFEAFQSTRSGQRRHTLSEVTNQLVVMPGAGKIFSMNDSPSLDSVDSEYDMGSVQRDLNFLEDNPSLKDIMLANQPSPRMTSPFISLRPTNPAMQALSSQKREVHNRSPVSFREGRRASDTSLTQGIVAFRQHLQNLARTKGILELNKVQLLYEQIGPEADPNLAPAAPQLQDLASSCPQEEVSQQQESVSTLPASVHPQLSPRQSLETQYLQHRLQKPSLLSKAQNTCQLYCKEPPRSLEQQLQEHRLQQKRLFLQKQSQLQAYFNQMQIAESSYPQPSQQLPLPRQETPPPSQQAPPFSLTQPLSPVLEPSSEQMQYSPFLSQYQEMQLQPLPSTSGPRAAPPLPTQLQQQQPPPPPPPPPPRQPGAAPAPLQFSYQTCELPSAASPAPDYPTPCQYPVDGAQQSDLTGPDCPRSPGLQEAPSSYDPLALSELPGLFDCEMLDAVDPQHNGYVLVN
T16 sequence (P11309 whole entry): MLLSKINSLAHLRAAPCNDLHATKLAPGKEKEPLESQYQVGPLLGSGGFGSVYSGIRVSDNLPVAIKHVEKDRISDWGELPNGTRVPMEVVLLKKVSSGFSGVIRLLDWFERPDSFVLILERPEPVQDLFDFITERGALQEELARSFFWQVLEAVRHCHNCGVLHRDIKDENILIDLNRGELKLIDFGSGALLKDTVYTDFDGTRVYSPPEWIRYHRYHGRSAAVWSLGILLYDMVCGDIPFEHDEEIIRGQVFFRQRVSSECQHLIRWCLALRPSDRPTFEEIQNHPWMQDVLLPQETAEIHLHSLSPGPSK
T19 sequence (O14965 whole entry): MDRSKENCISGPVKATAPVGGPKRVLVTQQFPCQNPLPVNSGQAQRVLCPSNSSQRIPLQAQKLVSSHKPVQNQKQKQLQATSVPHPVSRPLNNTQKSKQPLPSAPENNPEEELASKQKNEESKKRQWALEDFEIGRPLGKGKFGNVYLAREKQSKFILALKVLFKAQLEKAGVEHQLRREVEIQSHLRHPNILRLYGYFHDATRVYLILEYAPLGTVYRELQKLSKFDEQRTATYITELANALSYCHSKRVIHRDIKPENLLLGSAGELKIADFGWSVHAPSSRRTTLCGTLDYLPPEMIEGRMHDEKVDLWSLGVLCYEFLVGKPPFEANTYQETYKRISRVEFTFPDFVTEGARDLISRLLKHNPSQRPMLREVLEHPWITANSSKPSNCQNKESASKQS
T23 sequence (Q9HCP0 whole entry): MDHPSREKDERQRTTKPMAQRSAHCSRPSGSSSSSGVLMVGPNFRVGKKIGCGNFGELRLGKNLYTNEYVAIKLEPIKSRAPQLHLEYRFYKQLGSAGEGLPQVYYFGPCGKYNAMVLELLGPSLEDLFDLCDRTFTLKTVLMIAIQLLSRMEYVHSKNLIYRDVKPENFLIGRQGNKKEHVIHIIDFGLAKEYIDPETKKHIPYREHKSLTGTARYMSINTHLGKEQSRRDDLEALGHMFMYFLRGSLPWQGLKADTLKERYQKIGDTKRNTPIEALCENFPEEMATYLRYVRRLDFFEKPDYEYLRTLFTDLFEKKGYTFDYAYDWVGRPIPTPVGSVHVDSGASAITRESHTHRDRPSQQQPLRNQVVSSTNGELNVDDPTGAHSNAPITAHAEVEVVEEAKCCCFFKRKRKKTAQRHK
T3 sequence (P32298 whole entry): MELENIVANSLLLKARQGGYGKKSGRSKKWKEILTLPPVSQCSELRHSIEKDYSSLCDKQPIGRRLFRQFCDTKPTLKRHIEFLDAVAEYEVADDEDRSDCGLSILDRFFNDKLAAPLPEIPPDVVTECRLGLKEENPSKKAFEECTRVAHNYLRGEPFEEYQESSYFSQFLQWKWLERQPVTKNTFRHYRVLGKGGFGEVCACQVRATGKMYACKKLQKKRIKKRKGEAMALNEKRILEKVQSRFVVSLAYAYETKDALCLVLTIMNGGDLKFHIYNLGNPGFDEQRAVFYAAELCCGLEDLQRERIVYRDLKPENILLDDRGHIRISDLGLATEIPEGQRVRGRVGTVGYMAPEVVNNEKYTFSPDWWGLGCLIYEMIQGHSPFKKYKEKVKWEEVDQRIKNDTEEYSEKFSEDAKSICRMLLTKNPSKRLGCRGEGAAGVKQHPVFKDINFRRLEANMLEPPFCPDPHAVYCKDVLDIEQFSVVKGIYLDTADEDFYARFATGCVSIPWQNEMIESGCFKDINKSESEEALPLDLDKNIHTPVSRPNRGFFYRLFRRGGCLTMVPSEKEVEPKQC

For `c1cc(CC2CCOCC2)n2nc(Nc3ccc4c(NC5CCOCC5)n[nH]c4c3)nc2c1` [CC-509, [3-(2H-3,4,5,6-tetrahydropyran-4-ylamino)(1H-indazol-6-yl)][5-(2H-3,4,5,6-tetrahydropyran-4-ylmethyl)(2H-1,2,4-triazolo[1,5-a]pyridin-2-yl)]amine], the remaining activity at 3 µM [1] was 101%, the remaining activity at 3 µM [2, 34] was 66% and the IC50 [2, 35] was 11000 nM. It also gave a remaining activity at 3 µM [3] of 70%, a remaining activity at 3 µM [4] of 82% and a remaining activity at 3 µM [5] of 75%. The remaining activity at 3 µM [6] was 78%, the remaining activity at 3 µM [7, 34] was 6% and the IC50 [7, 35] was 140 nM and 143 nM. For the same compound, the remaining activity at 3 µM [8] was 99%, the remaining activity at 3 µM [9, 34] was -2% and the IC50 [9, 35] was 27.3 nM. For the same compound, the remaining activity at 3 µM [10] was 86%, the remaining activity at 3 µM [11] was 82% and the remaining activity at 3 µM [12] was 99%. For the same compound, the remaining activity at 3 µM [13] was 81%, the remaining activity at 3 µM [14] was 94% and the remaining activity at 3 µM [15] was 6%. For the same compound, the remaining activity at 3 µM [16] was 104%, the remaining activity at 3 µM [17] was 4% and the remaining activity at 3 µM [18] was 85%. It also gave a remaining activity at 3 µM [19] of 101%, a remaining activity at 3 µM [20] of 62% and a remaining activity at 3 µM [21] of 48%. The remaining activity at 3 µM [22] was 6%, the remaining activity at 3 µM [23] was 26% and the remaining activity at 3 µM [24] was 97%. The remaining activity at 3 µM [25] was 107%, the remaining activity at 3 µM [26] was 54% and the remaining activity at 3 µM [27] was 22%. The remaining activity at 3 µM [28] was 70%, the remaining activity at 3 µM [29] was 34% and the remaining activity at 3 µM [30] was 74%. It also gave a remaining activity at 3 µM [31] of 94%, a remaining activity at 3 µM [32] of 71% and a remaining activity at 3 µM [33] of 32%.
